Assay results as given in patent US10947222B2, “Indole derivatives useful as inhibitors of diacylglyceride O-acyltransferase 2” (Merck Sharp & Dohme Corp., priority 2016, dated 2021).
pIC50: −log10 of the molar value.

Molecular target: human DGAT2 (hDGAT2) (Homo sapiens (Human), UniProt Q96PD7)
Experiment: DGAT2 enzymatic activity assay (triolein formation, LC/MS/MS)
Type: biochemical
Details: Sf-9 membrane prep expressing hDGAT2; 25 μM diolein, 10 μM oleoyl-CoA; triolein by LC/MS/MS
In short: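 Membranes from Sf-9 cells infected with untagged baculovirus hDGAT2 were incubated at rt in 100 mM Tris.Cl pH 7.0, 20 mM MgCl2, 5% ethanol with 25 μM diolein and 10 μM oleoyl-CoA (10 ng/μL membrane). Triolein was quantified by LC/MS/MS against internal standard; IC50 by 4-parameter sigmoidal fit.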

human DGAT2 (hDGAT2), sequence (Q96PD7 whole entry): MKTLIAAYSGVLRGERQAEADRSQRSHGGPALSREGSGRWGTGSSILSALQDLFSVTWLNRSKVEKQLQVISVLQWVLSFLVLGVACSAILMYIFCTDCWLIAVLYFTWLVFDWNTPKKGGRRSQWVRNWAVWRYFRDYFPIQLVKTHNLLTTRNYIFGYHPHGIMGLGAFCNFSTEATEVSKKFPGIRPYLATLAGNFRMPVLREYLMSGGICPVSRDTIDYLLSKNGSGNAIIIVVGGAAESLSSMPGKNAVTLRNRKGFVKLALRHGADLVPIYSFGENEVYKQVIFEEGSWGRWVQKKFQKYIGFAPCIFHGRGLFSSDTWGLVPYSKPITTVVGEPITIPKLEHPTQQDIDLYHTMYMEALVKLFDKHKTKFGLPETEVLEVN

## C[C@@H](NC(=O)c1ccc2c(-c3ccccc3Cl)cn(-c3ccc(F)cc3)c2c1)c1ccc(C(F)(F)F)nc1 [Example 7, (R)-3-(2-chlorophenyl)-1-(4-fluorophenyl)-N-(1-(6-(trifluoromethyl)pyridin-3-yl)ethyl)-1H-indole-6-carboxamide]
  pIC50: 6.17

## CC1(NC(=O)c2ccc3c(-c4ccccc4Cl)cn(-c4ccc(F)cn4)c3c2)CCS(=O)(=O)C1 (single isomer, unassigned; enantiomer a) [Example 14-A, 3-(2-chlorophenyl)-1-(5-fluoropyridin-2-yl)-N-(3-methyl-1,1-dioxidotetrahydrothiophen-3-yl)-1H-indole-6-carboxamide (Enantiomer A, Fast)]
  pIC50: 7.80

## O=C(NC1CCS(=O)(=O)C1)c1ccc2c(-c3cccc(C4CC4)c3)cn(-c3ccc(F)cc3)c2c1 (single isomer, unassigned; enantiomer a) [Example 26-A, 3-(3-Cyclopropylphenyl)-N-(1,1-dioxidotetrahydrothiophen-3-yl)-1-(4-fluorophenyl)-1H-indole-6-carboxamide (Enantiomer A)]
  pIC50: 8.54

## CC(C)(CN1CCOCC1)NC(=O)c1ccc2c(-c3ccccc3Cl)cn(-c3ccc(F)cc3)c2c1 [Example 4, 3-(2-chlorophenyl)-1-(4-fluorophenyl)-N-(2-methyl-1-morpholinopropan-2-yl)-1H-indole-6-carboxamide]
  pIC50: 6.20
